Here are results for 32 compounds from US9512111B2, “N-sulfonylated tetrahydroquinolines and related bicyclic compounds for inhibition of RORγ activity and the treatment of disease” (Lycera Corporation, priority 2010, dated 2016).

One experiment addresses T1, RORγ-LBD (Homo sapiens, UniProt P51449).
T1 construct: HIS-tagged RORγ-LBD was recombinantly expressed in SF9 cells; made in house; host or cells: SF9 cells (baculovirus); unpurified lysate
T1 sequence (P51449 269-508 limits assumed): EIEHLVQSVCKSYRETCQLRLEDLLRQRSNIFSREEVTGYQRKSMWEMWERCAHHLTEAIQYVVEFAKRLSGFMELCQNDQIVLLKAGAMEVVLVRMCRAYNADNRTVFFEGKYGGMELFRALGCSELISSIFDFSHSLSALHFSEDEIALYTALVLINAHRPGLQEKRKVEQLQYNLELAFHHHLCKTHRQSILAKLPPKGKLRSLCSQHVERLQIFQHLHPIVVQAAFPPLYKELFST
Description: RORγ-Ligand Binding Domain TR-FRET Assay. Format: biochemical. The conditions noted are these: benzoxazines, Table 9. A digest of the protocol:
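Unpurified His-tagged LBD in Sf9 lysate (~10 nM final) in 25 mM HEPES pH 7.0, 100 mM NaCl, 0.01% Tween, 0.1% BSA, with biotinylated SRC1-2 LXXLL peptide (450 nM), Eu anti-His (2 nM) and streptavidin-APC (60 nM). Incubated 4 h to overnight; IC50 from 665/615 nm TR-FRET ratio.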
For orientation: Time-resolved FRET reads energy transfer from a long-lived donor to a nearby acceptor.

A further experiment addresses T2, RORγt (Homo sapiens, UniProt P51449).
T2 construct: The resulting GAL4-RORγt-LBD fusion construct was placed under the control of a constitutive cytomegalovirus (CMV) promoter; expressed in transfected cells; host or cells: HEK293
T2 sequence (P51449 269-508 limits assumed): T1 sequence (P51449 269-508 limits assumed)
Description: RORγ Reporter Assay (GAL4-UAS luciferase reporter in HEK293 cells). In kind it is cell-based. The conditions noted are these: benzoxazines, Table 9; HEK cells. On the procedure: Inhibition of RORγt in cells was determined using a GAL4-UAS reporter system in HEK293 cells employing a luciferase readout. The RORγt DNA binding domain (DBD) was replaced with the heterologous yeast GAL4 DBD using standard recombinant DNA methods. The resulting GAL4-RORγt-LBD fusion construct was placed under the control of a constitutive cytomegalovirus (CMV) promoter by cloning it into the CMV-driven mammalian expression vector pcDNA3.1+− (Promega Corporation, Madison, Wis.).
A transcriptional reporter expression construct was used to monitor GAL4-RORγ activity, which contained five copies of the GAL4 binding site enhancer (UAS) controlling expression of a firefly luciferase reporter. This construct, pGL4.31, is commercially available from Promega Corporation, Madison Wis. Both expression constructs were transfected in bulk into HEK-293 cells using standard lipid-based transfection techniques, which allowed the GAL4 RORγ-LBD fusion protein to drive expression of the luciferase reporter. Control transfections were performed with an empty pCDN3.1+ vector.
The next day, cells were plated into 384 well plates, test compound was added, and the plates were incubated overnight. […] Promega firefly assays kits were used to stabilize the luciferase signal, and the intensity of the luciferase signal was measured using an EnVision Multilabel Plate Reader (Perkin Elmer, Waltham, Mass.).
HEK 293 cells are transfected with GAL4-NR construct (CMV:NR-LBD in pcDNA3.1neo) and the pGL4.31 GAL4-luciferase reporter construct (Promega). For a background control, use empty pcDNA3.1neo and pGL4.31. Transfection protocol is for a single T75 flask performed with Minis Trans-It 293 reagent. A 60 μL aliquot of Trans-IT reagent at room temperature is added drop wise to 1.5 mL of Optimem (Invitrogen). The resulting solution is mixed by inversion and incubated for 5-20 minutes at room temperature. This reagent mixture is added to 10 μg of DNA (5 μg of each expression vector used at a concentration of 1 mg/mL). The solution is mixed by inversion and incubated at room temperature for 20 minutes.
While the Trans-IT reagent and DNA are incubating, harvest HEK-293 cells. Remove media from flasks via aspiration and add enough TrypLE Express (stable Trypsin-like reagent, Invitrogen) to cover the bottom of the flask. The mixture is incubated at room temperature until the cells are visibly loose in the flask (approximately 2-5 minutes). Add an equal volume of complete growth media, and then pipette to achieve a single cell suspension. Spin down 1×10^7 cells and re-suspend the cells in 10 mL of complete growth media (DMEM high glucose/10% dialyzed FBS/pen/strep; Invitrogen). The cells and transfection mixture are added to one T75 flask. The contents of the T75 flax are mixed and incubated overnight at 37° C. and 5% CO2.
After 16-24 hours, cells are harvested and plated for test compound screening. Cells may be harvested as described above. Next, cells are counted and an appropriate number of cells are spun down. Then, cells are aspirated and re-suspended in complete growth media at a concentration of 0.5×10^6 cells/mL to provide a cell suspension. Plate 20 μL of the cell suspension into a white, tissue-culture treated 384 well plate. (10,000 cells/well).
A 10 mM stock solution of test compound in dimethylsulfoxide (DMSO) was diluted to 500× the final test concentration in DMSO, then diluted to 5× the final test concentration with complete growth medium to provide the Test Compound Solution. The concentration of DMSO in the Test Compound Solution was […]. A 5 μL aliquot of Test Compound Solution was added to each test well in the 384 well plate previously plated with the cell suspension. Next, plates are spun briefly and incubated overnight at 37° C. and 5% CO2.
After 16-24 hours, the luciferase assay is performed. Plates and luciferase reagent (e.g. One-Glo® or Dual Glo®; Promega, Madison, Wis.) are brought to room temperature.
A general note: Reporter assays use an easily measured gene product as a stand-in for the process of interest.

The structures appear in SMILES notation.

Usually IC50 stands for the concentration at which inhibition is half-maximal.

As to `Cc1cccc(F)c1C(=O)Nc1ccc2c(c1)N(S(=O)(=O)c1cccc(C#N)c1)C[C@H](CO)O2` [VI-45], the IC50 at RORγ-LBD and against RORγt was < 15 µM throughout.
`Cc1nn(C(F)F)cc1S(=O)(=O)N1C[C@H](C)Oc2ccc(NC(=O)c3c(Cl)cccc3C(F)(F)F)cc21` [VI-11]: the IC50 on RORγ-LBD and against RORγt was < 15 µM each time.
Consider `CCOCC1CN(S(=O)(=O)c2ccc(F)cc2)c2cc(NC(=O)c3c(Cl)cccc3C(F)(F)F)ccc2O1` (stereo not shown) [Compound 15, 2-Chloro-N-[2-ethoxymethyl-4-(4-fluoro-benzenesulfonyl)-3,4-dihydro-2H-benzo[1,4]oxazin-6-yl]-6-trifluoromethyl-benzamide], for which the concentration for half-maximal inhibition (IC50) at RORγ-LBD and against RORγt was < 15 µM each time.
As to `O=C(Nc1ccc2c(c1)N(S(=O)(=O)c1ccc(F)cc1)CCO2)c1c(Cl)cccc1Cl` [VI-129], the IC50 on RORγ-LBD and on RORγt was < 15 µM in each case.
In the case of `O=C(Nc1ccc2c(c1)N(S(=O)(=O)c1ccc(Cl)cc1)C[C@@H](CO)O2)c1c(Cl)cccc1Cl` [VI-52], the half-inhibitory concentration (IC50) on RORγ-LBD and on RORγt was < 15 µM throughout.
`Cc1nn(C(F)F)cc1S(=O)(=O)N1C[C@H](C)Oc2ccc(NC(=O)c3c(F)cccc3F)cc21` [VI-8]: the IC50 at RORγ-LBD and on RORγt was < 15 µM each time.
Turning to `O=C(Nc1ccc2c(c1)N(S(=O)(=O)c1ccc(F)cc1)C[C@H](CO)O2)c1c(Cl)cccc1Cl` [VI-83], the IC50 at RORγ-LBD and against RORγt was < 15 µM in each case.
On to `COCC1CN(S(=O)(=O)c2cccc(C#N)c2)c2cc(NC(=O)c3c(F)cccc3F)ccc2O1` (stereo not shown) [VI-103], for which the IC50 at RORγ-LBD and at RORγt was < 15 µM each time.
For the compound `O=C(Nc1cc2c(cc1F)O[C@@H](CO)CN2S(=O)(=O)c1ccc(F)cc1)c1c(Cl)cccc1C(F)(F)F` [VI-41], the IC50 at RORγ-LBD and against RORγt was < 15 µM each time.
`O=C(Nc1cc2c(cc1F)O[C@@H](CO)CN2S(=O)(=O)c1ccc(F)cc1)c1c(Cl)cccc1Cl` [VI-40]: the IC50 at RORγ-LBD and on RORγt was < 15 µM each time.
`CCOCC1CN(S(=O)(=O)c2ccc(F)cc2)c2cc(NC(=O)c3c(F)cccc3F)ccc2O1` (stereo not shown) [VI-112]: the IC50 on RORγ-LBD and on RORγt was < 15 µM in each case.
With `O=C(Nc1ccc2c(c1)N(S(=O)(=O)c1ccc(F)c(F)c1)C[C@H](CO)O2)c1c(F)cccc1Cl` [VI-42], the half-maximal inhibitory concentration (IC50) at RORγ-LBD and against RORγt was < 15 µM throughout.
With `COCC1CN(S(=O)(=O)c2ccc(F)cc2)c2cc(NC(=O)c3c(F)cccc3Cl)c(F)cc2O1` (stereo not shown) [Compound 12, 2-Chloro-6-fluoro-N-[7-fluoro-4-(4-fluorobenzenesulfonyl)-2-methoxymethyl-3,4-dihydro-2H-benzo[1,4]oxazin-6-yl]benzamide], the IC50 on RORγ-LBD and at RORγt was < 15 µM each time.
As for `O=C(Nc1ccc2c(c1)N(S(=O)(=O)c1ccc(Cl)cc1)C[C@H](CO)O2)c1c(Cl)cccc1C(F)(F)F` [VI-84], the IC50 on RORγ-LBD and at RORγt was < 15 µM throughout.
As for `COCC1CN(S(=O)(=O)c2ccc(F)cc2)c2cc(NC(=O)c3c(Cl)cccc3Cl)ccc2O1` (stereo not shown) [VI-105], the IC50 at RORγ-LBD and at RORγt was < 15 µM in each case.
For `O=C(Nc1ccc2c(c1)N(S(=O)(=O)c1ccc(F)cc1)CC(C(F)(F)F)O2)c1c(Cl)cccc1Cl` (stereo not shown) [VI-107], the IC50 at RORγ-LBD and on RORγt was < 15 µM each time.
For `COCC1CN(S(=O)(=O)c2ccc(Cl)cc2)c2cc(NC(=O)c3c(F)cccc3Cl)ccc2O1` (stereo not shown) [VI-96], the IC50 on RORγ-LBD and at RORγt was < 15 µM throughout.
On to `COCC1CN(S(=O)(=O)c2ccc(F)cc2)c2cc(NC(=O)c3c(F)cccc3Cl)ccc2O1` (stereo not shown) [VI-119], for which the IC50 at RORγ-LBD and on RORγt was < 15 µM throughout.
For the compound `O=C(Nc1ccc2c(c1)N(S(=O)(=O)c1ccccc1)C[C@H](CO)O2)c1c(F)cccc1Cl` [VI-24], the IC50 at RORγ-LBD and on RORγt was < 15 µM throughout.
Consider `O=C(Nc1ccc2c(c1)N(S(=O)(=O)c1ccc(F)cc1)C[C@H](CO)O2)c1c(F)cccc1Cl` [VI-120], for which the IC50 on RORγ-LBD and on RORγt was < 15 µM in each case.
For `COCC1CN(S(=O)(=O)c2ccc(F)cc2)c2cc(NC(=O)c3c(F)cccc3F)ccc2O1` (stereo not shown) [VI-113], the IC50 on RORγ-LBD and against RORγt was < 15 µM throughout.
As for `CCOCC1CN(S(=O)(=O)c2ccc(F)c(F)c2)c2cc(NC(=O)c3c(Cl)cccc3C(F)(F)F)ccc2O1` (stereo not shown) [VI-88], the IC50 at RORγ-LBD and on RORγt was < 15 µM each time.
For `N#Cc1cccc(S(=O)(=O)N2C[C@H](CN3CCCC3)Oc3ccc(NC(=O)c4c(F)cccc4Cl)cc32)c1` [Compound 21, (S)-2-Chloro-N-(4-((3-cyanophenyl)sulfonyl)-2-(pyrrolidin-1-ylmethyl)-3,4-dihydro-2H-benzo[b][1,4]oxazin-6-yl)-6-fluorobenzamide], the IC50 on RORγ-LBD and on RORγt was < 15 µM in each case.
Regarding `CCN(CC)CC1CN(S(=O)(=O)c2ccc(F)cc2)c2cc(NC(=O)c3c(F)cccc3Cl)ccc2O1` (stereo not shown) [VI-38], the IC50 on RORγ-LBD and against RORγt was < 15 µM throughout.
On to `COCC1CN(S(=O)(=O)c2ccc(Cl)cc2)c2cc(NC(=O)c3c(Cl)cccc3Cl)ccc2O1` (stereo not shown) [VI-95], for which the IC50 at RORγ-LBD and against RORγt was < 15 µM each time.
Regarding `O=C(Nc1cc2c(cc1F)O[C@@H](CO)CN2S(=O)(=O)c1ccc(F)cc1)c1c(F)cccc1Cl` [VI-47], the IC50 on RORγ-LBD and against RORγt was < 15 µM in each case.
As for `COCC1CN(S(=O)(=O)c2ccc(F)c(F)c2)c2cc(NC(=O)c3c(F)cccc3F)ccc2O1` (stereo not shown) [VI-81], the IC50 at RORγ-LBD and at RORγt was < 15 µM each time.
On to `O=C(Nc1ccc2c(c1)N(S(=O)(=O)c1ccc(Cl)cc1)C[C@H](CO)O2)c1c(F)cccc1Cl` [VI-86], for which the IC50 on RORγ-LBD and at RORγt was < 15 µM each time.
Turning to `CCOCC1CN(S(=O)(=O)c2ccc(F)cc2)c2cc(NC(=O)c3c(F)cccc3Cl)ccc2O1` (stereo not shown) [VI-118], the IC50 on RORγ-LBD and on RORγt was < 15 µM throughout.
As for `Cc1nn(C(F)F)cc1S(=O)(=O)N1C[C@H](C)Oc2ccc(NC(=O)c3c(Cl)cccc3Cl)cc21` [VI-9], the IC50 on RORγ-LBD and on RORγt was < 15 µM throughout.
Regarding `O=C(Nc1ccc2c(c1)N(S(=O)(=O)c1ccc(F)cc1)C[C@@H](CO)O2)c1c(F)cccc1F` [VI-110], the IC50 on RORγ-LBD and at RORγt was < 15 µM throughout.
Regarding `O=C(Nc1ccc2c(c1)N(S(=O)(=O)c1ccc(Cl)cc1)C[C@@H](CO)O2)c1c(F)cccc1C(F)(F)F` [VI-51], the IC50 on RORγ-LBD and at RORγt was < 15 µM each time.
